According to article PMC3527569, “Anti-Inflammatory and Vasoprotective Activity of a Retroviral-Derived Peptide, Homologous to Human Endogenous Retroviruses: Endothelial Cell Effects” (PLoS ONE, 2012):
Where “and” joins values, the source holds several entries; their conditions need not be identical. Identical values can stand only once. Entries after “also recorded” stand apart in the source; their conditions may differ. Where a SMILES comes first, the peptide text is derived from it. Bridges are numbered along the chain shown (N, C = ends). Roman numbers before positions name the chains, in order.

Experiments:
dengue virus = test: Vascular leak in liver of mice injected with dengue virus; set-up: species or system mouse; details: 1 µg intraperitoneal; dengue virus i.v.; preliminary in vivo studies
carrageenan-induced DIC = test: Mouse carrageenan-induced DIC model, lethality; type: in vivo, mouse (CD-1)
Experimental: (§1) Groups of 10 male CD-1 mice were injected i.p. with 0.25 ml of either vehicle (PBS) or peptide in vehicle at varying times prior to the i.p. injection of 1.0 ml of carrageenan (0.45% [w/v] in PBS; Sigma). In experiments where serum cytokine levels were determined, groups of 5 mice were euthanized at 1-, 2-, 4-, 8-, and 24-h post injection of carrageenan, blood collected by cardiac puncture into heparinized syringes, and the resultant plasma stored at −80°C until assayed by ELISA. […] At 1-, 2-, 4-, and 24-h post injection of carrageenan, five mice from each group were euthanized and heparinized blood samples collected from the heart using heparinized syringes for subsequent determinations of WBC (white blood cell) counts, RBC (red blood cell) counts, or PLT (platelet) counts.

[1] = system: blood leukocyte and platelet counts; test: Blood cell counts (WBC, PLT) in mouse carrageenan DIC model; type: in vivo, mouse (CD-1); details: 245 nmol i.p. 18 h before carrageenan
Experimental: as §1

[2] = system: endothelial nitric oxide synthase (eNOS) mRNA; test: RT-PCR of eNOS mRNA in HUVEC; type: cell-based, human; details: data not shown
Experimental: (§2) Cells were cultured with various concentrations of test materials, either with or without stimulus, for varying times. The cells were collected, washed and total RNA isolated using the RNeasy Mini Kit (Qiagen; Valencia, CA). Following isolation the RNA was treated with 7 units of DNase I according to the RNase-Free DNase Set (Qiagen; Valencia, CA) protocol. Using these procedures we usually obtained ∼50 µg of total RNA/10^7 cells. cDNA was prepared from the isolated mRNAs and RT-PCR performed on the target cytokines/chemokines/growth factors using appropriate primer pairs and a control primer pair for β-actin (all from R & D Systems; Minneapolis, MN). RT-PCR was generally performed for 30 cycles for β-actin and 35–45 cycles for iNOS and VEGF.

systolic blood pressure = test: SHR rat hypertension model (tail cuff); type: in vivo
Experimental: As part of a general pharmacological screen, MN10021 was evaluated in a rat model of hypertension by MDS-PanLabs (Bothell, WA). […] Blood pressure measurements were made by tail cuff at 1, 2, and 4 h post administration of test compounds. A decrease of ≥10% of the baseline systolic blood pressure is considered significant in this assay.

HUVEC = test: TNF-α-induced necrosis in HUVEC (Cell Death Detection ELISA, supernatant); type: cell-based, human; details: HUVEC pretreated 3 h with 6.25-50 µM peptide, TNF-α 100 ng/ml, overnight
Experimental: Apoptosis was measured in HUVEC using the Cell Death Detection ELISA^PLUS kit (Roche Diagnostics; Indianapolis, IN) according to the manufacturer's instructions. This assay is based on a quantitative sandwich-enzyme-immunoassay using mouse monoclonal antibodies directed against both DNA and histones, respectively. It allows the specific determination of mono- and oligonucleosomes in the cytoplasmic fraction of cell lysates (apoptosis) and in the supernatant of dying cells (necrosis). The apoptotic index (AI) was calculated as
where treatment refers to use of a known apoptosis- or necrosis-inducing agent (staurosporine, TNF-α).

[3] = mice; data not shown
IL-6 = test: Plasma IL-6 in mouse carrageenan DIC model (ELISA); type: in vivo, mouse (CD-1); details: 1 mg (245 nmol) i.p. 18 h before carrageenan, peak at 4 h
Experimental: as §1
(§3) Cytokine measurements of serum samples from MN10021-treated mice were performed by sandwich ELISA assays (R & D systems) according to the manufacturer’s instructions for use of its kits with sera samples.

IL-1β = test: LPS-induced IL-1β release by human PBMC (sandwich ELISA); type: cell-based; details: 18-24 h, peptide 10 nM-100 µM in triplicate, IC50 estimated from graph
Experimental: Cytokine Assays: One-hundred µL of PBMC (2 x 10^6/ml in Complete Medium) were added to each well of a flat-bottom, 96-well tissue culture plate. To each well was then added 50 µL of media or peptide (4X desired final concentration; in Complete Medium) and 50 µL of lipopolysaccharide (LPS; S. typhosa; Sigma, St. Louis, MO; 400 ng/ml Complete Medium). Each peptide was tested in triplicate at 5 log10 concentrations ranging from 100 µM to 10 nM. Plates were incubate 18-24 h at 37°C in 5% humidified CO2. Plates were then centrifuged and 100 µL of supernatant removed from each well and stored frozen at -80°C until assayed. Cytokines (TNF-α, IL-1β, IL-6, GM-CSF) were measured by sandwich ELISA assays (R & D Systems; Minneapolis, MN) using the manufacturer’s instructions. The released cytokine concentration was determined from a standard curve using recombinant cytokine provided with each kit.

TNF-α = test: Plasma TNF-α in mouse carrageenan DIC model (ELISA); type: in vivo, mouse (CD-1); details: 1 mg (245 nmol) i.p. 18 h before carrageenan, over 24 h, groups of 5 mice
Experimental: as §1, §3

paw inflammation = test: Carrageenan-induced paw inflammation in mice; type: in vivo, mouse; details: compared with peritonitis model; data not shown
[4] = system: iNOS (inducible nitric oxide synthase) mRNA; test: RT-PCR of iNOS mRNA in HUVEC; type: cell-based, human; details: 50 µM peptide, 3 h, 37°C, quiescent HUVEC, RT-PCR
Experimental: as §2

[5] = system: inflammatory accumulation of monocytes/macrophages; test: Mouse NaIO4-induced inflammatory peritonitis model; type: in vivo, mouse (CD-1); details: doses as high as 40 µg (10 nmol)
Experimental: Effects of test compounds on the inflammatory accumulation of monocytes/macrophages or neutrophils in vivo were determined using a mouse peritonitis model. Briefly, groups of five 6–8 week old CD-1 outbred mice (Charles River; Raleigh, NC) were injected intraperitoneally (i.p.) with 1.0 ml of a sterile inflammatory stimulus (NaIO4; 5 mM in sterile isotonic saline; Sigma; St. Louis, MO). This procedure results in a dramatic accumulation of neutrophils in the peritoneal cavity which peaks at 6–8 h post injection, followed by an accumulation of monocytes/macrophages which peaks at 48–72 h post injection. Mice were euthanized by CO2 asphyxiation at either 6 h (for neutrophils) or 48 h (for monocyte/macrophages), the peritoneal cavities lavaged with two 10-ml washes of heparinized (10 u/ml; Sigma; St. Louis, MO) HBSS containing 0.1% (w/v) BSA, the washes pooled, and total and differential cells counts determined for each pooled cell suspension. Each test material was evaluated in a group of five mice, each of which was injected subcutaneously in the thigh with 0.2 ml of test material in HBSS 24 h prior to the i.p. injection of the inflammatory stimulus.

[6] = 100 mg/kg orally (gavage), groups of 3 SHR rats, tail cuff, vs 0 h value

| Compound | effect on vascular leak in the liver of dengue virus-injected mice (dengue virus) | protection in lethal model of carrageenan-induced DIC (carrageenan-induced DIC; 73 nmol) | mice protected from lethal carrageenan (carrageenan-induced DIC; 30 µg (7 nmol) i.p. 18 h prior to carrageenan, groups of 10 CD-1 mice) | survival time after carrageenan (carrageenan-induced DIC; 1 mg (245 nmol) i.p. before i.p. carrageenan, 120 h longest time observed) | effect on carrageenan-induced leukocytosis (WBC) [1] | PLT count of treated mice, percent of normal ([1]; over the 24 h period) | effect on expression of mRNA for eNOS [2] | decreases in blood pressure at the three time points (1, 2, 4 h) (systolic blood pressure; 30 mg/kg orally, data not shown) | decrease in blood pressure at 1 h (systolic blood pressure; [6]) [%] | decrease in blood pressure at 2 h (systolic blood pressure; [6]) [%] | decrease in blood pressure at 4 h (systolic blood pressure; [6]) [%] | lowering of blood pressure within 1 h (systolic blood pressure; orally-administered (abstract)) | protection against TNF-α-induced necrosis (HUVEC) | time to detection in the blood after s.c. injection [3] [min] | block of peak plasma IL-6 response (IL-6) | IC50 (IL-1β) [µM] | block of carrageenan-induced increase in plasma TNF-α (TNF-α) | activity in carrageenan-induced paw inflammation (paw inflammation) | induction of mRNA for iNOS in HUVEC [4] | anti-inflammatory activity in peritonitis model [5] |
| --- | --- | --- | --- | --- | --- | --- | --- | --- | --- | --- | --- | --- | --- | --- | --- | --- | --- | --- | --- | --- |
| CC(C)C[C@H](NC(=O)CNC(=O)CNC(=O)[C@H](CCC(=O)O)NC(=O)[C@H](CCCCN)NC(=O)[C@H](CC(C)C)NC(=O)[C@H](Cc1ccccc1)NC(=O)[C@H](CC(C)C)NC(=O)[C@H](CC(C)C)NC(=O)[C@H](CC(=O)O)NC(=O)[C@H](CC(C)C)NC(=O)CNC(=O)[C@H](CCCNC(=N)N)NC(=O)[C@H](CCCNC(=N)N)NC(=O)[C@H](CC(N)=O)NC(=O)[C@H](CCC(N)=O)NC(=O)[C@@H](N)CC(C)C)C(=O)N[C@@H](CSSC[C@H](NC(=O)[C@H](CC(C)C)NC(=O)CNC(=O)CNC(=O)[C@H](CCC(=O)O)NC(=O)[C@H](CCCCN)NC(=O)[C@H](CC(C)C)NC(=O)[C@H](Cc1ccccc1)NC(=O)[C@H](CC(C)C)NC(=O)[C@H](CC(C)C)NC(=O)[C@H](CC(=O)O)NC(=O)[C@H](CC(C)C)NC(=O)CNC(=O)[C@H](CCCNC(=N)N)NC(=O)[C@H](CCCNC(=N)N)NC(=O)[C@H](CC(N)=O)NC(=O)[C@H](CCC(N)=O)NC(=O)[C@@H](N)CC(C)C)C(=O)O)C(=O)O [MN10021] (I: H-LQNRRGLDLLFLKEGGLC-OH / II: H-LQNRRGLDLLFLKEGGLC-OH; disulfide I:18-II:18) | inhibit the vascular leak | completely protects | approximately 50% | at least 120 h | prevented much of the leukocytosis | approximately 50% | Neither MN10021 nor DUK0005 affected | 3–4% | 12 | 15 | 13 | 10–15% | significant protection; also recorded: block almost completely | ≤ 15 | about 50% | 17 | ~85% and > 80% | equally active | induces mRNA for iNOS | – |
| H-LGGEKLFLLDGRNQLC-OH (disulfide (positions not given here)) [MN20050] | – | – | – | – | – | – | – | – | – | – | – | – | – | – | – | > 100 | – | – | – | no anti-inflammatory activity |
